For 9 compounds, Activity and MIC results are on record in ChEMBL document CHEMBL3244163, “Antifungal agents. 5. Chemical modification of antibiotics from Polyangium cellulosum var. fulvum. Alcohol, ketone, aldehyde, and oxime analogues of ambruticin” (1979).

Experiment [1] concerns Streptococcus pyogenes. Description: Antibacterial activity against Streptococcus pyogenes by standard broth dilution technique. In kind it is functional, organism-based. On the technique in general: Broth dilution looks for growth in wells or tubes with falling amounts of substance.
Experiment [2] concerns Candida albicans. Description: Antifungal activity against Candida albicans by standard broth dilution technique. The experiment is classed as functional, organism-based.
Experiment [3] deals with Histoplasma capsulatum. Description: Antifungal activity against Histoplasma capsulatum assessed as growth inhibition after 3 days by standard broth dilution technique. In kind it is functional. As to conditions: 72 h.
A short description of experiment [4]: Antifungal activity against Microsporum fulvum assessed as growth inhibition after 3 days by standard broth dilution technique. The experiment is classed as functional. As to conditions: Arthroderma fulvum.

Usually MIC stands for the smallest concentration in the dilution series that meets the test's criterion for growth inhibition.

In brackets after ≈: the same amount, converted by molar mass. Activity calls are given as the source filed them.

With `CC[C@H]1O[C@@H](/C(C)=C/[C@H](C)/C=C/[C@H]2[C@@H](C)[C@@H]2/C=C/[C@@H]2O[C@H](CC(O)c3ccccc3)C[C@H](O)[C@H]2O)CC=C1C` (stereo partly specified), the outcome in experiment [1] and in experiment [2] was inactive. Moreover, the MIC in experiment [3] and in experiment [4] was 1.56 µg/mL (≈ 2.91 µM) each time.

On to `CC[C@H]1O[C@@H](/C(C)=C/[C@H](C)/C=C/[C@H]2[C@@H](C)[C@@H]2/C=C/[C@@H]2O[C@H](CC(=O)c3ccccc3)C[C@H](O)[C@H]2O)CC=C1C`, for which the result in experiment [1] and in experiment [2] was inactive. Moreover, the minimum inhibitory concentration (MIC) in experiment [3] was 6.25 µg/mL (≈ 11.7 µM); in experiment [4], 25 µg/mL (≈ 46.8 µM).

For `CC[C@H]1O[C@@H](/C(C)=C/[C@H](C)/C=C/[C@H]2[C@@H](C)[C@@H]2/C=C/[C@@H]2O[C@H](CC(O)(c3ccccc3)c3ccccc3)C[C@H](O)[C@H]2O)CC=C1C`, the outcome in experiment [1] and in experiment [2] was inactive. The MIC in experiment [3] is 50 µg/mL (≈ 81.6 µM); in experiment [4] it was greater than 50 µg/mL.

Turning to `CC[C@H]1O[C@@H](/C(C)=C/[C@H](C)/C=C/[C@H]2[C@@H](C)[C@@H]2/C=C/[C@@H]2O[C@H](CCO)C[C@@](O)(CC)[C@H]2O)CC=C1C`, the outcome in experiment [1] and in experiment [2] was inactive. Further, the minimal inhibitory concentration (MIC) in experiment [3] and in experiment [4] was 1.56 µg/mL (≈ 3.19 µM) in each case.

Regarding `CC[C@H]1O[C@@H](/C(C)=C/[C@H](C)/C=C/[C@H]2[C@@H](C)[C@@H]2/C=C/[C@@H]2O[C@H](CC(C)O)C[C@H](O)[C@H]2O)CC=C1C` (stereo partly specified), the outcome in experiment [1] and in experiment [2] was inactive. The minimum inhibitory concentration (MIC) was 0.098 µg/mL (≈ 0.206 µM) in experiment [3] and 0.195 µg/mL (≈ 0.411 µM) in experiment [4].

Consider `CC[C@H]1O[C@@H](/C(C)=C/[C@H](C)/C=C/[C@H]2[C@@H](C)[C@@H]2/C=C/[C@@H]2O[C@H](CCO)CC(=O)[C@H]2O)CC=C1C`, for which the outcome in experiment [1] and in experiment [2] was inactive. The MIC in experiment [3] was 6.25 µg/mL (≈ 13.6 µM); in experiment [4], 0.78 µg/mL (≈ 1.7 µM).

Turning to `CC[C@H]1O[C@@H](/C(C)=C/[C@H](C)/C=C/[C@H]2[C@@H](C)[C@@H]2/C=C/[C@@H]2O[C@H](CC(C)=O)C[C@H](O)[C@H]2O)CC=C1C`, the outcome in experiment [1] and in experiment [2] was inactive. Moreover, the MIC in experiment [3] was determined as 0.39 µg/mL (≈ 0.825 µM); in experiment [4], 0.195 µg/mL (≈ 0.413 µM).

Consider `CC[C@H]1O[C@@H](/C(C)=C/[C@H](C)/C=C/[C@H]2[C@@H](C)[C@@H]2/C=C/[C@@H]2O[C@H](CC(O)C(C)(C)C)C[C@H](O)[C@H]2O)CC=C1C` (stereo partly specified), for which the result in experiment [1] and in experiment [2] was inactive. Moreover, the minimal inhibitory concentration (MIC) in experiment [3] was 6.25 µg/mL (≈ 12.1 µM); in experiment [4], greater than 50 µg/mL.

With `CC[C@H]1O[C@@H](/C(C)=C/[C@H](C)/C=C/[C@H]2[C@@H](C)[C@@H]2/C=C/[C@@H]2O[C@H](CCO)C[C@](C)(O)[C@H]2O)CC=C1C`, the outcome in experiment [1] and in experiment [2] was inactive. Besides, the MIC in experiment [3] and in experiment [4] was 0.78 µg/mL (≈ 1.64 µM) in each case.
